In US8163777B2, “Benzimidazolyl-pyridine compounds for inflammation and immune-related uses” (Synta Pharmaceuticals Corp., priority 2006, dated 2012):

Test system: IL-2 production
Test: Inhibition of IL-2 production in PHA-activated Jurkat cells (ELISA)
Format: cell-based
Details: Homo sapiens, PHA 2.5 μg/mL, 20 hours, bin given with mixed units 500 nM-1 μM
Experimental: Jurkat cells were placed in a 96 well plate (0.5 million cells per well in 1% FBS medium) then test compounds of this invention were added at different concentrations. After 10 minutes, the cells were activated with PHA (final concentration 2.5 μg/mL) and incubated for 20 hours at 37° C. under CO2. The final volume was 200 μL. Following incubation, the cells were centrifuged and the supernatants collected and stored at −70° C. prior to assaying for IL-2 production. A commercial ELISA kit (IL-2 Eli-pair, Diaclone Research, Besancon, France) was used to detect production of IL-2, from which dose response curves were obtained. The IC50 value was calculated as the concentration at which 50% of maximum IL-2 production after stimulation was inhibited versus a non-stimulation control.

| Compound | IC50 |
| --- | --- |
| COc1ccc2c(c1)nc(C(F)(F)F)n2-c1ccc(NC(=O)c2cccc(F)c2)nc1 [Compound 186, 3-Fluoro-N-[5-(5-methoxy-2-trifluoromethyl-benzoimidazol-1-yl)-pyridin-2-yl]-benzamide] | 0.5 to 1 µM |
| COc1ccc2c(c1)nc(C(F)(F)F)n2-c1ccc(NC(=O)c2csnc2C)nc1 [Compound 194, 3-Methyl-isothiazole-4-carboxylic acid [5-(5-methoxy-2-trifluoromethyl-benzoimidazol-1-yl)-pyridin-2-yl]-amide] | 0.5 to 1 µM |
| COc1ccc2c(c1)nc(C(F)(F)F)n2-c1ccc(NC(=O)c2cccc(C)c2)nc1 [Compound 198, N-[5-(5-Methoxy-2-trifluoromethyl-benzoimidazol-1-yl)-pyridin-2-yl]-3-methyl-benzamide] | 0.5 to 1 µM |

Same assay, conditions: Homo sapiens, PHA 2.5 μg/mL, 20 hours, binned values

| Compound | IC50 |
| --- | --- |
| COc1ccc2c(c1)nc(C(F)(F)F)n2-c1ccc(NC(=O)c2cccc(C#N)c2)nc1 [Compound 183, 3-Cyano-N-[5-(5-methoxy-2-trifluoromethyl-benzoimidazol-1-yl)-pyridin-2-yl]-benzamide] | 0.1 to 0.5 µM |
| COc1ccc2c(c1)nc(C(F)(F)F)n2-c1ccc(NC(=O)c2cccc([N+](=O)[O-])c2)nc1 [Compound 184, N-[5-(5-Methoxy-2-trifluoromethyl-benzoimidazol-1-yl)-pyridin-2-yl]-3-nitro-benzamide] | 0.1 to 0.5 µM |
| COc1ccc2c(c1)nc(C(F)(F)F)n2-c1ccc(NC(=O)c2ccccc2F)nc1 [Compound 185, 2-Fluoro-N-[5-(5-methoxy-2-trifluoromethyl-benzoimidazol-1-yl)-pyridin-2-yl]-benzamide] | < 0.1 µM |
| COc1ccc2c(c1)nc(C(F)(F)F)n2-c1ccc(NC(=O)c2ccccc2I)nc1 [Compound 187, 2-Iodo-N-[5-(5-methoxy-2-trifluoromethyl-benzoimidazol-1-yl)-pyridin-2-yl]-benzamide] | < 0.1 µM |
| COc1ccc2c(c1)nc(C(F)(F)F)n2-c1ccc(NC(=O)CC(C)C)nc1 [Compound 189, N-[5-(5-Methoxy-2-trifluoromethyl-benzoimidazol-1-yl)-pyridin-2-yl]-3-methyl-butyramide] | < 0.1 µM |
| COc1ccc2c(c1)nc(C(F)(F)F)n2-c1ccc(NC(=O)c2ccc([N+](=O)[O-])cc2)nc1 [Compound 190, N-[5-(5-Methoxy-2-trifluoromethyl-benzoimidazol-1-yl)-pyridin-2-yl]-4-nitro-benzamide] | 0.1 to 0.5 µM |
| COc1ccc2c(c1)nc(C(F)(F)F)n2-c1ccc(NC(=O)c2cccc(Br)c2)nc1 [Compound 191, 3-Bromo-N-[5-(5-methoxy-2-trifluoromethyl-benzoimidazol-1-yl)-pyridin-2-yl]-benzamide] | 0.1 to 0.5 µM |
| COC(=O)c1cccc(C(=O)Nc2ccc(-n3c(C(F)(F)F)nc4cc(OC)ccc43)cn2)c1 [Compound 192, N-[5-(5-Methoxy-2-trifluoromethyl-benzoimidazol-1-yl)-pyridin-2-yl]-isophthalamic acid methyl ester] | 0.1 to 0.5 µM |
| COc1ccc2c(c1)nc(C(F)(F)F)n2-c1ccc(NC(=O)C2CCCC2)nc1 [Compound 193, Cyclopentanecarboxylic acid [5-(5-methoxy-2-trifluoromethyl-benzoimidazol-1-yl)-pyridin-2-yl]-amide] | < 0.1 µM |
| COc1ccc2c(c1)nc(C(F)(F)F)n2-c1ccc(NC(=O)c2scnc2Br)nc1 [Compound 195, 4-Bromo-thiazole-5-carboxylic acid [5-(5-methoxy-2-trifluoromethyl-benzoimidazol-1-yl)-pyridin-2-yl]-amide] | 0.1 to 0.5 µM |
| COc1ccc2c(c1)nc(C(F)(F)F)n2-c1ccc(NC(=O)c2ccc(Br)cc2)nc1 [Compound 196, 4-Bromo-N-[5-(5-methoxy-2-trifluoromethyl-benzoimidazol-1-yl)-pyridin-2-yl]-benzamide] | 0.1 to 0.5 µM |
| COc1ccc2c(c1)nc(C(F)(F)F)n2-c1ccc(NC(=O)c2ccccc2[N+](=O)[O-])nc1 [Compound 197, 2-Nitro-N-[5-(5-methoxy-2-trifluoromethyl-benzoimidazol-1-yl)-pyridin-2-yl]-benzamide] | < 0.1 µM |
